Test results as given in US9340507B2, “Substituted 4-pyridones and their use as inhibitors of neutrophil elastase activity” (Boehringer Ingelheim International GmbH, priority 2012, dated 2016).

Molecular target: Human neutrophil elastase (Homo sapiens (Human), UniProt P08246)
Experiment: Human Neutrophil Elastase Assay
Format: biochemical
Conditions: substrate MeOSuc-Ala-Ala-Pro-Val-AMC 250 μM, pH 7.5, fluorescence

Sequence of Human neutrophil elastase (P08246 30-267): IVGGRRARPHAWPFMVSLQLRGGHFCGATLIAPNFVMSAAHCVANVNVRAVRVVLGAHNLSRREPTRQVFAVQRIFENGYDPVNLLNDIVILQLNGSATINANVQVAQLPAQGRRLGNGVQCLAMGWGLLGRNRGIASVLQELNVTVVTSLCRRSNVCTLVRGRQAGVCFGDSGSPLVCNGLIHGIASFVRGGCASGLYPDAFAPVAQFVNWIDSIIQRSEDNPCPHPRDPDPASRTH

Row | Compound | IC50
1 | Cc1c(-c2cccc(C(F)(F)F)c2)c(=O)c(C(=O)NCc2ccc([S+](C)[O-])cc2)cn1C(C)C (single isomer, unassigned) [Example 27.1A] | 5.4 nM
2 | Cc1c(-c2cccc(C(F)(F)F)c2)c(=O)c(C(=O)NCc2ccc(S(C)(=O)=O)cc2)cn1C(C)C [Example 1.2, 1-isopropyl-6-methyl-4-oxo-5-(3-trifluoromethyl-phenyl)-1,4-dihydro-pyridine-3-carboxylic acid 4-methanesulfonyl-benzylamide] | 12 nM
3 | COc1cc(CNC(=O)c2cn(C(C)C)c(C)c(-c3cccc(C(F)(F)F)c3)c2=O)ccc1S(C)(=O)=O [Example 49, 1-Isopropyl-6-methyl-4-oxo-5-(3-trifluoromethyl-phenyl)-1,4-dihydro-pyridine-3-carboxylic acid 4-methanesulfonyl-3-methoxy-benzylamide] | 47 nM
4 | CC[C@H](C)n1cc(C(=O)NCc2ccc(S(C)(=O)=O)cc2)c(=O)c(-c2cccc(C(F)F)c2)c1C [Example 12.2, (S)-1-sec-Butyl-5-(3-difluoromethyl-phenyl)-6-methyl-4-oxo-1,4-dihydro-pyridine-3-carboxylic acid 4-methanesulfonyl-benzylamide] | 12 nM
5 | Cc1c(-c2cccc(C(F)(F)F)c2)c(=O)c(C(=O)NCc2ccc(S(C)(=O)=O)cn2)cn1CC1CCOC1 (stereo not shown) [Example 2.4] | 73 nM
6 | Cc1c(-c2ccnc(C(F)(F)F)c2)c(=O)c(C(=O)NCc2ccc(S(C)(=O)=O)cn2)cn1C(C)C [Example 17.3, 1-Isopropyl-2-methyl-4-oxo-2′-trifluoromethyl-1,4-dihydro-[3,4]bipyridinyl-5-carboxylic acid (5-methanesulfonyl-pyridin-2-ylmethyl)-amide] | 77 nM
7 | Cc1c(-c2cccc(C(F)(F)F)c2)c(=O)c(C(=O)NCc2ccc3c(c2)C=CS3(=O)=O)cn1C(C)C [Example 48, 1-Isopropyl-6-methyl-4-oxo-5-(3-trifluoromethyl-phenyl)-1,4-dihydro-pyridine-3-carboxylic acid (1,1-dioxo-1H-1λ^6-benzo[b]thiophen-5-ylmethyl)-amide] | 11 nM
8 | CCn1cc(C(=O)NCc2ccc(S(C)(=O)=O)cn2)c(=O)c(-c2cccc(C(F)(F)F)c2)c1C [Example 2.1] | 57 nM
9 | CCCn1cc(C(=O)NCc2ccc(S(C)(=O)=O)cn2)c(=O)c(-c2cccc(C(F)(F)F)c2)c1C [Example 2.2] | 20 nM
10 | Cc1nnc(CNC(=O)c2cn(C(C)C)c(C)c(-c3cccc(C(F)(F)F)c3)c2=O)o1 [Example 3.1, 1-Isopropyl-6-methyl-4-oxo-5-(3-trifluoromethyl-phenyl)-1,4-dihydro-pyridine-3-carboxylic acid (5-methyl-[1,3,4]oxadiazol-2-ylmethyl)-amide] | 38 nM
11 | Cc1c(-c2cccc(C(F)F)c2)c(=O)c(C(=O)NCc2ccc(S(C)(=O)=O)cc2)cn1C1CCCC1 [Example 9.2, 1-Cyclopentyl-5-(3-difluoromethyl-phenyl)-6-methyl-4-oxo-1,4-dihydro-pyridine-3-carboxylic acid 4-methanesulfonyl-benzylamide] | 18 nM

The remaining molecules from weak to strong by IC50, led by results:

Row | IC50 | Compound
12 | 51 nM | Cc1c(-c2cccc(C(F)F)c2)c(=O)c(C(=O)NCc2ccc(C#N)cc2)cn1C(C)C [Example 4.5]
13 | 45 nM | Cc1c(-c2cccc(C(F)F)c2)c(=O)c(C(=O)NCc2ccc3c(cnn3C)c2)cn1C(C)C [Example 4.7]
14 | 15 nM | Cc1c(-c2cccc(C(F)F)c2)c(=O)c(C(=O)NCc2ccc(S(C)(=O)=O)cn2)cn1C(C)C [Example 17.2, 5-(3-Difluoromethyl-phenyl)-1-isopropyl-6-methyl-4-oxo-1,4-dihydro-pyridine-3-carboxylic acid (5-methanesulfonyl-pyridin-2-ylmethyl)-amide]
15 | 11 nM | Cc1c(-c2cccc(C(F)F)c2)c(=O)c(C(=O)NCc2ccc(S(C)(=O)=O)cc2)cn1C(C)C [Example 4.14]
16 | 10 nM | CC[C@@H](C)n1cc(C(=O)NCc2ccc(S(C)(=O)=O)cn2)c(=O)c(-c2cccc(C(F)F)c2)c1C [Example 19.2, (R)-1-sec-Butyl-5-(3-difluoromethyl-phenyl)-6-methyl-4-oxo-1,4-dihydro-pyridine-3-carboxylic acid (5-methanesulfonyl-pyridin-2-ylmethyl)-amide]
17 | 5 nM | CCC(CC)n1cc(C(=O)NCc2ccc(S(C)(=O)=O)cn2)c(=O)c(-c2cccc(C(F)F)c2)c1C [Example 23.2, 5-(3-Difluoromethyl-phenyl)-1-(1-ethyl-propyl)-6-methyl-4-oxo-1,4-dihydro-pyridine-3-carboxylic acid (5-methanesulfonyl-pyridin-2-ylmethyl)-amide]

Test system: not listed separately
Experiment: Determination of aqueous solubility from DMSO stock solutions (kinetic solubility method)
Format: physicochemical
Conditions: McIlvaine buffer pH 6.8, 24 h shaking, 2.5% DMSO, range 0.001 to 0.125 mg/ml
Method: Determination of Aqueous Solubility from DMSO Stock Solutions (“Kinetic Solubility Method”)
The aqueous solubility of examples of this invention is determined by comparing the amount dissolved in buffer to the amount dissolved in an acetonitrile/water (1/1) solution. Starting from a 10 mM DMSO stock solution, aliquots are diluted with acetonitrile/water (1/1) and McIlvaine buffer pH 6.8, respectively. After 24 h of shaking, the liquid phase is filtered and analyzed by LC-UV. The amount dissolved in buffer is compared to the amount dissolved in the acetonitrile/water (1/1) solution. Solubility is measured from 0.001 to 0.125 mg/ml at a DMSO concentration of 2.5%.

Row | aqueous solubility at pH 6.8 | Compound
18 | 0.076 mg/mL | Cc1c(-c2cccc(C(F)F)c2)c(=O)c(C(=O)NCc2ccc(S(C)(=O)=O)cc2)cn1C(C)C [Example 4.14]
19 | 0.081 mg/mL | Cc1c(-c2cccc(C(F)(F)F)c2)c(=O)c(C(=O)NCc2ccc([S+](C)[O-])cc2)cn1C(C)C (single isomer, unassigned) [Example 27.1A]
